These results are taken from patent publication US6479515B1, “Heterocyclic benzenesulphonamide compounds as bradykinine antagonists” (Fournier Industrie et Sante, priority 1999, dated 2002).

Where a name gives a salt, the structure may show the parent alone. Read-outs that look alike come from different tables or passages of the source.

One assay deals with T1, bradykinin B2 receptor (Homo sapiens, UniProt P30411).
T1 construct: from tissue; host or cells: isolated human umbilical vein
T1 sequence (P30411 1-391): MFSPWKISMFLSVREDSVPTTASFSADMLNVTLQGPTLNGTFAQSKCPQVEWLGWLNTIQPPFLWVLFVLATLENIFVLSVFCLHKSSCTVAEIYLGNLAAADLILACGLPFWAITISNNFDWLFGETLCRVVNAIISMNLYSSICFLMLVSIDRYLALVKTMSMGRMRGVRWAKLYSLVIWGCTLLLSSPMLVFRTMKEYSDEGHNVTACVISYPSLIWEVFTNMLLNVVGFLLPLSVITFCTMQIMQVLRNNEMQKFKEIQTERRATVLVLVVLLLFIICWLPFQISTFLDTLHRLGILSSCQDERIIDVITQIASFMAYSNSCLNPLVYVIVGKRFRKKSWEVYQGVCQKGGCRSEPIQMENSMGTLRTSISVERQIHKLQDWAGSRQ
Nature of the assay: inhibition of the contraction of the isolated human umbilical vein in the presence of bradykinin. It counts as cell-based. From the text: This antagonist character is expressed by the value pA2, calculated according to a biological test employed in order to measure the inhibition of the contraction of the isolated human umbilical vein by the compounds according to the invention in the presence of bradykinin. The test procedure and the method of calculation of pA2 are described in the articles of D. Pruneau et al. published in Br. J. Pharmacol. 1998, 125, p 365-372 and J L. Paquet et al. Br. J. Pharmacol. 1999, 126 (in print).

In the next assay the target is T2, human B2 receptor (Homo sapiens, UniProt P30411).
T2 construct: expressed in transfected cells; host or cells: CHO cells (membranes)
T2 sequence (P30411 1-391): T1 sequence (P30411 1-391)
In words: competitive binding test on CHO cell membranes expressing the human B2 receptor using [3H]-bradykinin as ligand. As to the method:
The activity of the products according to the invention was evaluated, according to a first aspect, as a function of their aptitude to bind to the bradykinin B2 receptors. […] It is likewise known that bradykinin is amongst one of the most powerful algesic agents known. The mode of action of kinins and more particularly of bradykinin makes a coupling of the peptides to the two types of receptors called B1 and B2 respectively take place. The B2 receptor belongs to the large family of receptors with seven transmembrane domains coupled to the G proteins and seems to be more particularly involved in the field of the pathologies mentioned above. This is the reason why the products of the invention, which have the property of being able to bind to the B2 receptor, inhibit the binding of bradykinin and, consequently, suppress its harmful activity. The test employed in order to measure this property is a competitive binding test on CHO cell membranes expressing the human B2 receptor using bradykinin labelled with tritium ([^3H]-bradykinin) as ligand.
The results are expressed by the Ki value, as calculated according to the recommended method with the description of the test employed and described according to D. Pruneau et al., in Br. J. Pharmacol. 1998, 125 p 365-372.

The mark [1] stands for this setting: isolated human umbilical vein, contraction in the presence of bradykinin.
[2] abbreviates: isolated human umbilical vein, contraction in the presence of bradykinin, read-out: pA2 (converted).

The pA2 is the negative logarithm of the molar antagonist concentration that doubles the agonist concentration needed for the same response. Usually Ki stands for a dissociation constant, usually derived from enzyme kinetics or from competition with a known ligand. Read a low Ki as higher affinity. As for “1-[[2,4-Dichloro-3-[[[4-(1H-imidazol-1-yl)-2-methyl-8-quinolinyl]oxy]methyl]-phenyl]sulphonyl]-N-[3-(dimethylamino)propyl]-N-methyl-2(S)-pyrrolidine-carboxamide, hemisulphate [Example 61]”, the pA2 on bradykinin B2 receptor (setting [1]) amounted to 8.1. Also, the Ki at human B2 receptor is 21 nM.
In the case of `Cc1cc(-n2cncn2)c2cccc(OCc3c(Cl)ccc(S(=O)(=O)N4CCC[C@H]4C(=O)NCC4CCN(CCO)CC4)c3Cl)c2n1` [Example 166, 1-[[2,4-Dichloro-3-[[[2-methyl-4-(1H-1,2,4-triazol-1-yl)-2-methyl-8-quinolinyl]oxy]methyl]phenyl]sulphonyl]-N-[[1-(2-(hydroxyethyl)-4-piperidinyl]methyl]-2(S)-pyrrolidinecarboxamide, methanesulphonate], the Kb at bradykinin B2 receptor (setting [2]) was 6.31 nM. The compound further yielded an inhibition constant Ki on human B2 receptor of 5.8 nM.
Turning to “1-[[2,4-Dichloro-3-[[[4-(1H-imidazol-1-yl)-2-methyl-8-quinolinyl]oxy]methyl]-phenyl]sulphonyl]-N-[2-(4-morpholinyl)ethyl]-2(S)-pyrrolidinecarboxamide, hemisulphate [Example 48]”, at bradykinin B2 receptor (setting [1]), the pA2 stood at 8.5. Besides, the Ki on human B2 receptor was 32 nM.
Turning to `Cc1cc(-n2cncn2)c2cccc(OCc3c(Cl)ccc(S(=O)(=O)N4CCC[C@H]4C(=O)NCC4CCN(CCCO)CC4)c3Cl)c2n1` [Example 30, 1-[[2,4-Dichloro-3-[[[2-methyl-4-(1H-1,2,4-triazol-1-yl)-8-quinolinyl]oxy]-methyl]phenyl]sulphonyl]-N-[[1-(3-hydroxypropyl)-4-piperidinyl]methyl]-2(S)-pyrrolidinecarboxamide, tartrate], on bradykinin B2 receptor, the Kb is 2 nM. For the same compound, on human B2 receptor, the affinity, expressed as Ki, was 0.73 nM.
Turning to `Cc1cc(-n2ccnc2)c2cccc(OCc3c(Cl)ccc(S(=O)(=O)N4CCC[C@H]4C(=O)N(C)CCN(C)C)c3Cl)c2n1` [Example 73, 1-[[2,4-Dichloro-3-[[[4-(1H-imidazol-1-yl)-2-methyl-8-quinolinyl]oxy]methyl]-phenyl]sulphonyl]-N-[2-(dimethylamino)ethyl]-N-methyl-2(S)-pyrrolidine-carboxamide, tartrate], the Kb at bradykinin B2 receptor is 3.98 nM. At human B2 receptor, this compound came in with a Ki of 10 nM.
For the compound `Cc1cc(-n2ccnc2)c2cccc(OCc3c(Cl)ccc(S(=O)(=O)N4CCC[C@H]4C(=O)NCCCNC(=O)c4ccc(C(=N)N)cc4)c3Cl)c2n1` [Example 4, N-[3-[[4-(Aminoiminomethyl)benzoyl]amino]propyl]-1-[[2,4-dichloro-3-[[[4-(1H-imidazol-1-yl)-2-methyl-8-quinolinyl]oxy]methyl]phenyl]sulphonyl]-2(S)-pyrrolidinecarboxamide, bis methanesulphonate], on bradykinin B2 receptor (setting [2]), the Kb was 0.1 nM. Also, affinity on human B2 receptor was put at a Ki of 0.24 nM.
With `Cc1cc(-n2ccnc2)c2cccc(OCc3c(Cl)ccc(S(=O)(=O)N4CCC[C@H]4C(=O)NCCCN4CCCC4)c3Cl)c2n1` [Example 77, 1-[[2,4-Dichloro-3-[[[4-(1H-imidazol-1-yl)-2-methyl-8-quinolinyl]oxy]methyl]-phenyl]sulphonyl]-N-[3-(1-pyrrolidinyl)propyl]-2(S)-pyrrolidinecarboxamide, tartrate], on bradykinin B2 receptor, the Kb is 2.51 nM. At human B2 receptor, this compound showed a Ki of 6.1 nM.
`Cc1cc(-n2ccnc2)c2cccc(OCc3c(Cl)ccc(S(=O)(=O)N4C[C@H](O)C[C@H]4C(=O)NCC4CCNCC4)c3Cl)c2n1` [Example 42, 1-[[2,4-Dichloro-3-[[[4-(1H-imidazol-1-yl)-2-methyl-8-quinolinyl]oxy]methyl]-phenyl]sulphonyl]-4(R)-hydroxy-N-(4-piperidinemethyl)-2(S)-pyrrolidine-carboxamide, ditartrate]: the Kb at bradykinin B2 receptor (setting [2]) is 5.01 nM. Further, on human B2 receptor, the affinity, expressed as Ki, was 77 nM.
For `Cc1cc(-n2ccnc2)c2cccc(OCc3c(Cl)ccc(S(=O)(=O)N4CCC[C@H]4C(=O)N(C)CCN(C)CCCO)c3Cl)c2n1` [Example 101, 1-[[2,4-Dichloro-3-[[[4-(1H-imidazol-1-yl)-2-methyl-8-quinolinyl]oxy]methyl]-phenyl]sulphonyl]-N-methyl-N-[2-[[3-(hydroxy)propyl](methyl)amino]ethyl]-2(S)-pyrrolidinecarboxamide, methanesulphonate] the same measures were 3.98 nM and 50 nM.
Regarding “1-[[2,4-Dichloro-3-[[[4-(1H-imidazol-1-yl)-2-methyl-8-quinolinyl]oxy]methyl]-phenyl]sulphonyl]-N-[3-(4-morpholinyl)propyl]-2(S)-pyrrolidinecarboxamide, hemisulphate [Example 50]”, the pA2 on bradykinin B2 receptor (setting [1]) amounted to 8.3. For the same compound, the inhibition constant Ki at human B2 receptor turned out to be 30 nM.
Regarding `CNCCCNC(=O)[C@@H]1CCCN1S(=O)(=O)c1ccc(Cl)c(COc2cccc3c(-n4ccnc4)cc(C)nc23)c1Cl` [Example 123, 1-[[2,4-Dichloro-3-[[[4-(1H-imidazol-1-yl)-2-methyl-8-quinolinyl]oxy]methyl]-phenyl]sulphonyl]-N-[3-(methylamino)propyl]-2(S)-pyrrolidinecarboxamide, trifluoroacetate], the Kb at bradykinin B2 receptor is 3.98 nM. Besides, the Ki on human B2 receptor was found to be 8.1 nM.
As to `Cc1cc(-n2ccnc2)c2cccc(OCc3c(Cl)ccc(S(=O)(=O)N4CCC[C@H]4C(=O)NCC4CCN(Cc5ccccn5)CC4)c3Cl)c2n1` [Example 109, 1-[[2,4-Dichloro-3-[[[4-(1H-imidazol-1-yl)-2-methyl-8-quinolinyl]oxy]methyl]-phenyl]sulphonyl]-N-[[1-(2-pyridinylmethyl)-4-piperidinyl]methyl]-2(S)-pyrrolidinecarboxamide, methanesulphonate], on bradykinin B2 receptor (setting [2]), the Kb was 5.01 nM. On human B2 receptor, this compound registered a Ki of 15 nM.
For `Cc1cc(-n2ccnc2)c2cccc(OCc3c(Cl)ccc(S(=O)(=O)N4CCC[C@H]4C(=O)NCC4CCN(CCCO)CC4)c3Cl)c2n1` [Example 23, 1-[[2,4-Dichloro-3-[[[4-(1H-imidazol-1-yl)-2-methyl-8-quinolinyl]oxy]methyl]-phenyl]sulphonyl]-N-[[1-(3-hydroxypropyl)-4-piperidinyl]methyl]-2(S)-pyrrolidinecarboxamide, tartrate], the Kb on bradykinin B2 receptor is 0.794 nM. On human B2 receptor, this compound yielded a Ki of 0.45 nM.
With `Cc1cc(-n2cncn2)c2cccc(OCc3c(Cl)ccc(S(=O)(=O)N4CCC[C@H]4C(=O)NCCCN4CCCC4)c3Cl)c2n1` [Example 87, 1-[[2,4-Dichloro-3-[[[2-methyl-4-(1H-1,2,4-triazol-1-yl)-8-quinolinyl]oxy]-methyl]phenyl]sulphonyl]-N-[3-(1-pyrrolidinyl)propyl]-2(S)-pyrrolidine-carboxamide, methanesulphonate], the Kb at bradykinin B2 receptor (setting [2]) is 6.31 nM. Further, at human B2 receptor, the inhibition constant Ki amounted to 15 nM.
Taken in the same sequence, the figures for `Cc1cc(-n2ccnc2)c2cccc(OCc3c(Cl)ccc(S(=O)(=O)N4CCC[C@H]4C(=O)NCC4CCN(CCO)CC4)c3Cl)c2n1` [64 A] were 0.501 nM and 0.034 nM.
Take `Cc1cc(-n2ccnc2)c2cccc(OCc3c(Cl)ccc(S(=O)(=O)N4CCC[C@H]4C(=O)NCC4CCN(CCOCCO)CC4)c3Cl)c2n1` [Example 12, 1-[[2,4-Dichloro-3-[[[4-(1H-imidazol-1-yl)-2-methyl-8-quinolinyl]oxy]methyl]-phenyl]sulphonyl]-N-[[1-[2-(2-hydroxyethoxy)ethyl]-4-piperidinyl]methyl]-2(S)-pyrrolidinecarboxamide, tartrate]: the Kb on bradykinin B2 receptor is 2 nM. Affinity at human B2 receptor was put at a Ki of 0.47 nM.
